Test results reported in ChEMBL document CHEMBL3046399, “Microwave assisted synthesis of novel pyrimidine derivatives and investigation of their analgesic and ulcerogenic activity” (Med Chem Res, 2012).

How the values were obtained:
Mus musculus [1] = assay: Analgesic activity in Mus musculus Swiss albino (mouse) assessed as protection against acetic acid-induced writhing response at 20 mg/kg, po administered 30 min prior to acetic acid challenge measured at 0.5 hr relative to control; format: functional
Mus musculus [2] = assay: Analgesic activity in Mus musculus Swiss albino (mouse) assessed as protection against acetic acid-induced writhing response at 20 mg/kg, po administered 30 min prior to acetic acid challenge measured at 1 hr relative to control; format: functional
Mus musculus [3] = assay: Analgesic activity in Mus musculus Swiss albino (mouse) assessed as protection against acetic acid-induced writhing response at 20 mg/kg, po administered 30 min prior to acetic acid challenge measured at 2 hr relative to control; format: functional
Mus musculus [4] = assay: Ulcerogenic activity in Mus musculus Swiss albino (mouse) stomach assessed as decrease in ulcer spots at 60 mg/kg, po after 17 hr by hematoxylin-eosin staining relative to vehicle-treated control; format: toxicity, organism-based; design: dose 60 mg/kg, route oral; settings: in vivo

SMILES: COc1ccccc1-c1cc(-c2cc3cc(Br)ccc3oc2=O)nc(NCN2CCOCC2)n1
- Activity (Mus musculus [1]): 41.97%
- Activity (Mus musculus [2]): 36.13%
- Activity (Mus musculus [3]): 37.61%

SMILES: COc1cccc(-c2cc(-c3cc4cc(Br)ccc4oc3=O)nc(NCN3CCOCC3)n2)c1
- Activity (Mus musculus [1]): 60.62%
- Activity (Mus musculus [2]): 53.41%
- Activity (Mus musculus [3]): 47.42%

SMILES: O=c1oc2ccc(Br)cc2cc1-c1cc(-c2ccc(Cl)cc2Cl)nc(NCN2CCOCC2)n1
- Activity (Mus musculus [1]): 95.34%
- Activity (Mus musculus [2]): 85.36%
- Activity (Mus musculus [3]): 69.6%
- Activity (Mus musculus [4]): Non-toxic

SMILES: O=c1oc2ccc(Br)cc2cc1-c1cc(-c2c(Cl)cccc2Cl)nc(NCN2CCOCC2)n1
- Activity (Mus musculus [1]): 95.34%
- Activity (Mus musculus [2]): 87.96%
- Activity (Mus musculus [3]): 75.26%

SMILES: O=c1oc2ccc(Br)cc2cc1-c1cc(-c2cccc(Cl)c2)nc(NCN2CCCCC2)n1
- Activity (Mus musculus [1]): 81.87%
- Activity (Mus musculus [2]): 83.25%
- Activity (Mus musculus [3]): 51.53%

SMILES: O=c1oc2ccc(Br)cc2cc1-c1cc(-c2ccc(Cl)cc2)nc(NCN2CCCCC2)n1
- Activity (Mus musculus [1]): 83.94%
- Activity (Mus musculus [2]): 77.47%
- Activity (Mus musculus [3]): 61.86%

SMILES: O=c1oc2ccc(Br)cc2cc1-c1cc(-c2ccccc2Br)nc(NCN2CCCCC2)n1
- Activity (Mus musculus [1]): 55.96%
- Activity (Mus musculus [2]): 40.31%
- Activity (Mus musculus [3]): 15.47%

SMILES: O=c1oc2ccc(Br)cc2cc1-c1cc(-c2cccc(Br)c2)nc(NCN2CCCCC2)n1
- Activity (Mus musculus [1]): 41.97%
- Activity (Mus musculus [2]): 37.7%
- Activity (Mus musculus [3]): 39.16%

SMILES: O=c1oc2ccc(Br)cc2cc1-c1cc(-c2ccc(Br)cc2)nc(NCN2CCCCC2)n1
- Activity (Mus musculus [1]): 49.74%
- Activity (Mus musculus [2]): 41.88%
- Activity (Mus musculus [3]): 32.47%

SMILES: COc1ccccc1-c1cc(-c2cc3cc(Br)ccc3oc2=O)nc(NCN2CCCCC2)n1
- Activity (Mus musculus [1]): 77.72%
- Activity (Mus musculus [2]): 65.44%
- Activity (Mus musculus [3]): 33.5%

SMILES: COc1cccc(-c2cc(-c3cc4cc(Br)ccc4oc3=O)nc(NCN3CCCCC3)n2)c1
- Activity (Mus musculus [1]): 74.09%
- Activity (Mus musculus [2]): 63.87%
- Activity (Mus musculus [3]): 35.05%

SMILES: O=c1oc2ccc(Br)cc2cc1-c1cc(-c2ccc(Cl)cc2Cl)nc(NCN2CCCCC2)n1
- Activity (Mus musculus [1]): 83.94%
- Activity (Mus musculus [2]): 69.12%
- Activity (Mus musculus [3]): 38.14%

SMILES: O=c1oc2ccc(Br)cc2cc1-c1cc(-c2c(Cl)cccc2Cl)nc(NCN2CCCCC2)n1
- Activity (Mus musculus [1]): 26.43%
- Activity (Mus musculus [2]): 18.32%
- Activity (Mus musculus [3]): 15.47%

SMILES: O=c1oc2ccc(Br)cc2cc1-c1cc(-c2ccccc2Cl)nc(NCN2CCOCC2)n1
- Activity (Mus musculus [1]): 97.93%
- Activity (Mus musculus [2]): 87.97%
- Activity (Mus musculus [3]): 64.43%

SMILES: O=c1oc2ccc(Br)cc2cc1-c1cc(-c2cccc(Cl)c2)nc(NCN2CCOCC2)n1
- Activity (Mus musculus [1]): 69.95%
- Activity (Mus musculus [2]): 62.3%
- Activity (Mus musculus [3]): 40.71%

SMILES: O=c1oc2ccc(Br)cc2cc1-c1cc(-c2ccc(Cl)cc2)nc(NCN2CCOCC2)n1
- Activity (Mus musculus [1]): 98.45%
- Activity (Mus musculus [2]): 89.54%
- Activity (Mus musculus [3]): 55.68%

SMILES: O=c1oc2ccc(Br)cc2cc1-c1cc(-c2ccccc2Br)nc(NCN2CCOCC2)n1
- Activity (Mus musculus [1]): 59.59%
- Activity (Mus musculus [2]): 50.27%
- Activity (Mus musculus [3]): 47.94%

SMILES: O=c1oc2ccc(Br)cc2cc1-c1cc(-c2cccc(Br)c2)nc(NCN2CCOCC2)n1
- Activity (Mus musculus [1]): 52.33%
- Activity (Mus musculus [2]): 45.55%
- Activity (Mus musculus [3]): 47.42%

SMILES: O=c1oc2ccc(Br)cc2cc1-c1cc(-c2ccc(Br)cc2)nc(NCN2CCOCC2)n1
- Activity (Mus musculus [1]): 61.66%
- Activity (Mus musculus [2]): 51.3%
- Activity (Mus musculus [3]): 46.89%

SMILES: O=c1oc2ccc(Br)cc2cc1-c1cc(-c2ccccc2Cl)nc(NCN2CCCCC2)n1
- Activity (Mus musculus [1]): 89.64%
- Activity (Mus musculus [2]): 84.83%
- Activity (Mus musculus [3]): 52.06%

SMILES: O=C([O-])Cc1ccccc1Nc1c(Cl)cccc1Cl.[Na+] [DICLOFENAC SODIUM]
- Activity (Mus musculus [1]): 95.87%
- Activity (Mus musculus [2]): 94.25%
- Activity (Mus musculus [3]): 84.53%
